In publication PMC6173509, “C-3- and C-4-Substituted Bicyclic Coumarin Sulfamates as Potent Steroid Sulfatase Inhibitors” (ACS Omega, 2018):

Assays:
[1] = target: T1, steroid sulfatase (STS) (Homo sapiens, UniProt P08842); experiment: STS inhibition in placental microsomes; assay type: biochemical; set-up: a placental microsomal preparation from a sulfatase-positive human placenta from a normal term pregnancy; from tissue; host or cells: human placenta (microsomal preparation); details: 20 μM E1S; for inhibition at 0.01 µM: 0.01 μM inhibitor; for inhibition at 0.1 µM: 0.1 μM inhibitor; for inhibition at 1 µM: 1 μM inhibitor; for inhibition at 10 µM: 10 μM inhibitor
T1 sequence (P08842 22-583): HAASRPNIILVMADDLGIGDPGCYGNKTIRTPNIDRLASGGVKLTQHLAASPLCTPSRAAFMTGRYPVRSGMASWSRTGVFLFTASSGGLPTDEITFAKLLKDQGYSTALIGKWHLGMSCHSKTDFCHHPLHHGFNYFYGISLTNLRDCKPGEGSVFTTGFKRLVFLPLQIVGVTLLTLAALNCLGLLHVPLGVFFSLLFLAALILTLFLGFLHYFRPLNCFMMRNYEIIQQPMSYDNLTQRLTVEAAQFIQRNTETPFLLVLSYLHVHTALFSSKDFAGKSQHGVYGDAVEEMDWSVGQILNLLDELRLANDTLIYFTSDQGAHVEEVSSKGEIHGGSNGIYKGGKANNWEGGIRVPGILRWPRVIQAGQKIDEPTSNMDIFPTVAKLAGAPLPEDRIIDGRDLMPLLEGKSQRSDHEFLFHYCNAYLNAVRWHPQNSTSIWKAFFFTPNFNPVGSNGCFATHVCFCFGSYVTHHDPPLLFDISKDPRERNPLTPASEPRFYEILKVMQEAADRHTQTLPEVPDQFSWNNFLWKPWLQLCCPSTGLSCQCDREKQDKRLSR

[2] = target: T1, steroid sulfatase (STS); experiment: STS inhibition in intact MCF-7 breast cancer cells; assay type: cell-based; set-up: endogenous in cells; host or cells: MCF-7 breast cancer cells; details: for inhibition at 0.1 µM: MCF7, read-out: % Inhibition of STS Activity in Intact MCF-7 Breast Cancer Cells at 0.1 μM; for inhibition at 1 µM: MCF7, read-out: % Inhibition of STS Activity in Intact MCF-7 Breast Cancer Cells at 1 μM; for inhibition at 10 µM: MCF7, read-out: % Inhibition of STS Activity in Intact MCF-7 Breast Cancer Cells at 10 μM; for IC50: 3 nM E1S; for inhibition at 0.01 µM: MCF7, read-out: % Inhibition of STS Activity in Intact MCF-7 Breast Cancer Cells at 0.01 μM

`CCCCCCCCCCCc1c(C)c2ccc(OS(N)(=O)=O)cc2oc1=O` [compound 34, 4-Methyl-3-undecylcoumarin-7-O-sulfamate] gave an IC50 [1] of 2000 nM.

Work on `CCCCc1cc(=O)oc2cc(OS(N)(=O)=O)ccc12` [compound 9, 4-Butylcoumarin-7-O-sulfamate] yielded an inhibition at 0.1 µM [2] of 85%, an inhibition at 1 µM [2] of 91% and an inhibition at 10 µM [2] of 93%. For the same molecule, the inhibition at 0.01 µM [1] was 10%, the inhibition at 0.1 µM [1] was 49% and the inhibition at 1 µM [1] was 91%. For the same molecule, the inhibition at 10 µM [1] was 98% and the IC50 [1] was 102 nM.

`CCCCCCCCCCCc1cc(=O)oc2cc(OS(N)(=O)=O)ccc12` [compound 16, 4-Undecylcoumarin-7-O-sulfamate] showed an inhibition at 0.01 µM [1] of 8%, an inhibition at 0.1 µM [1] of 56% and an inhibition at 1 µM [1] of 92%. It also gave an inhibition at 10 µM [1] of 97% and an IC50 [1] of 73 nM.

For `CCCCCCCCc1c(C)c2ccc(OS(N)(=O)=O)cc2oc1=O` [compound 31, 4-Methyl-3-octylcoumarin-7-O-sulfamate], the inhibition at 0.1 µM [2] was 99%, the inhibition at 1 µM [2] was 100% and the inhibition at 10 µM [2] was 100%. For the same molecule, the inhibition at 0.01 µM [1] was 21%, the inhibition at 0.1 µM [1] was 71% and the inhibition at 1 µM [1] was 98%. The inhibition at 10 µM [1] was 99%.

`NS(=O)(=O)Oc1ccc2c(Cc3ccccc3)cc(=O)oc2c1` [compound 23, 4-Benzylcoumarin-7-O-sulfamate] was tested, and the IC50 [2] was 75 nM, the inhibition at 0.01 µM [2] was 8% and the inhibition at 0.1 µM [2] was 55%. The inhibition at 1 µM [2] was 70%, the inhibition at 10 µM [2] was 84% and the inhibition at 0.01 µM [1] was 2%. For the same molecule, the inhibition at 0.1 µM [1] was 61%, the inhibition at 1 µM [1] was 96% and the inhibition at 10 µM [1] was 99%. For the same molecule, the IC50 [1] was 64 nM.

`CCCCCc1c(C)c2ccc(OS(N)(=O)=O)cc2oc1=O` [compound 28, 4-Methyl-3-pentylcoumarin-7-O-sulfamate] was tested, and the inhibition at 0.1 µM [2] was 97%, the inhibition at 1 µM [2] was 99% and the inhibition at 10 µM [2] was 100%. For the same molecule, the inhibition at 0.01 µM [1] was 41%, the inhibition at 0.1 µM [1] was 94% and the inhibition at 1 µM [1] was 99%. It also gave an inhibition at 10 µM [1] of 100% and an IC50 [1] of 12 nM.

For `CCCCCCc1cc(=O)oc2cc(OS(N)(=O)=O)ccc12` [compound 11, 4-Hexylcoumarin-7-O-sulfamate], the inhibition at 0.1 µM [2] was 87%, the inhibition at 1 µM [2] was 90% and the inhibition at 10 µM [2] was 93%. For the same molecule, the inhibition at 0.01 µM [1] was 6%, the inhibition at 0.1 µM [1] was 70% and the inhibition at 1 µM [1] was 97%. It also gave an inhibition at 10 µM [1] of 99% and an IC50 [1] of 52 nM.

For `Cc1c(CCCc2ccccc2)c(=O)oc2cc(OS(N)(=O)=O)ccc12` [compound 43, 4-Methyl-3-[3-phenylpropyl]coumarin-7-O-sulfamate], the inhibition at 0.1 µM [2] was 87%, the inhibition at 1 µM [2] was 99% and the inhibition at 10 µM [2] was 100%. The inhibition at 0.1 µM [1] was 47% and the inhibition at 1 µM [1] was 99%.

Molecule `Cc1c(-c2ccccc2)c(=O)oc2cc(OS(N)(=O)=O)ccc12` [compound 40, 4-Methyl-3-phenylcoumarin-7-O-sulfamate] has an IC50 [2] of 25 nM, an inhibition at 0.01 µM [2] of 32% and an inhibition at 0.1 µM [2] of 75%. It also gave an inhibition at 0.01 µM [1] of 8%, an inhibition at 0.1 µM [1] of 65% and an inhibition at 1 µM [1] of 95%. For the same molecule, the inhibition at 10 µM [1] was 99% and the IC50 [1] was 54 nM.

`CC(C)Cc1cc(=O)oc2cc(OS(N)(=O)=O)ccc12` [compound 20, 4-(1′,1′-Dimethylethyl)coumarin-7-O-sulfamate] showed an inhibition at 0.1 µM [1] of 19% and an inhibition at 1 µM [1] of 97%.

In the case of `NS(=O)(=O)Oc1ccc2c(C3CCCCC3)cc(=O)oc2c1` [compound 26, 4-Cyclohexylcoumarin-7-O-sulfamate], the IC50 [2] is reported as 24 nM, the inhibition at 0.01 µM [2] is reported as 37% and the inhibition at 0.1 µM [2] is reported as 72%. For the same molecule, the inhibition at 1 µM [2] was 80%, the inhibition at 10 µM [2] was 93% and the inhibition at 0.01 µM [1] was 9%. The inhibition at 0.1 µM [1] was 69%, the inhibition at 1 µM [1] was 94% and the inhibition at 10 µM [1] was 99%. The IC50 [1] was 42 nM.

`Cc1c(Cl)c(=O)oc2cc(OS(N)(=O)=O)ccc12` [compound 39, 3-Chloro-4-methylcoumarin-7-O-sulfamate] gave an IC50 [2] of 600 nM, an inhibition at 0.1 µM [2] of 29% and an inhibition at 1 µM [2] of 67%. It also gave an inhibition at 10 µM [2] of 87%.

In the case of `NS(=O)(=O)Oc1ccc2c(-c3ccccc3)cc(=O)oc2c1` [compound 22, 4-Phenylcoumarin-7-O-sulfamate], the inhibition at 0.1 µM [2] is reported as 36%, the inhibition at 1 µM [2] is reported as 79% and the inhibition at 10 µM [2] is reported as 87%. The IC50 [1] was 200 nM.

Work on `Cc1c(CCc2ccccc2)c(=O)oc2cc(OS(N)(=O)=O)ccc12` [compound 42, 4-Methyl-3-(2-phenylethyl)coumarin-7-O-sulfamate] yielded an IC50 [2] of 1.1 nM, an inhibition at 0.01 µM [2] of 93% and an inhibition at 0.1 µM [2] of 98%. For the same molecule, the inhibition at 1 µM [2] was 99%, the inhibition at 0.01 µM [1] was 45% and the inhibition at 0.1 µM [1] was 91%. The inhibition at 1 µM [1] was 99%, the inhibition at 10 µM [1] was 100% and the IC50 [1] was 33 nM.

`Cc1c(CC2CCCCC2)c(=O)oc2cc(OS(N)(=O)=O)ccc12` [compound 44, 3-Cyclohexylmethyl-4-methylcoumarin-7-O-sulfamate] was tested, and the inhibition at 0.1 µM [1] was 74% and the inhibition at 1 µM [1] was 99%.

Molecule `NS(=O)(=O)Oc1ccc2c(CCl)cc(=O)oc2c1` [compound 21, 4-Chloromethylcoumarin-7-O-sulfamate] has an IC50 [2] of 220 nM, an inhibition at 0.01 µM [2] of 6% and an inhibition at 0.1 µM [2] of 33%. The inhibition at 1 µM [2] was 82%, the inhibition at 10 µM [2] was 92% and the inhibition at 0.01 µM [1] was 10%. It also gave an inhibition at 0.1 µM [1] of 19%, an inhibition at 1 µM [1] of 59% and an inhibition at 10 µM [1] of 94%. It also gave an IC50 [1] of 600 nM.

`CCCCCCCCCCc1cc(=O)oc2cc(OS(N)(=O)=O)ccc12` [compound 15, 4-Decylcoumarin-7-O-sulfamate] was tested, and the inhibition at 0.01 µM [2] was 86%, the inhibition at 0.1 µM [2] was 95% and the inhibition at 1 µM [2] was 98%. It also gave an inhibition at 10 µM [2] of 100%, an inhibition at 0.01 µM [1] of 17% and an inhibition at 0.1 µM [1] of 74%. The inhibition at 1 µM [1] was 96%, the inhibition at 10 µM [1] was 99% and the IC50 [1] was 60 nM.

`CCCCCCCCCCCCc1cc(=O)oc2cc(OS(N)(=O)=O)ccc12` [compound 17, 4-Dodecylcoumarin-7-O-sulfamate] was tested, and the inhibition at 0.01 µM [2] was 22%, the inhibition at 0.1 µM [2] was 67% and the inhibition at 1 µM [2] was 95%. It also gave an inhibition at 10 µM [2] of 98%, an inhibition at 0.01 µM [1] of 17% and an inhibition at 0.1 µM [1] of 68%. It also gave an inhibition at 1 µM [1] of 89%, an inhibition at 10 µM [1] of 96% and an IC50 [1] of 45 nM.

Molecule `CCc1ccc(-c2cc(=O)oc3cc(OS(N)(=O)=O)ccc23)cc1` [compound 25, 4-(4-Ethylphenyl)coumarin-7-O-sulfamate] has an IC50 [2] of 350 nM, an inhibition at 0.01 µM [2] of 6% and an inhibition at 0.1 µM [2] of 24%. It also gave an inhibition at 1 µM [2] of 73%, an inhibition at 10 µM [2] of 84% and an inhibition at 1 µM [1] of 27%. The inhibition at 10 µM [1] was 85% and the IC50 [1] was 2600 nM.

In the case of `CC(C)c1cc(=O)oc2cc(OS(N)(=O)=O)ccc12` [compound 19, 4-(Prop-2-yl)coumarin-7-O-sulfamate], the inhibition at 0.1 µM [1] is reported as 86%, the inhibition at 1 µM [1] is reported as 90% and the inhibition at 10 µM [1] is reported as 94%.

Molecule `NS(=O)(=O)Oc1ccc2c(CC34CC5CC(CC(C5)C3)C4)cc(=O)oc2c1` [compound 27, 4-(1-Adamantanemethyl)coumarin-7-O-sulfamate] has an inhibition at 0.1 µM [1] of 8% and an inhibition at 1 µM [1] of 96%.

Molecule `CCCCCCCCCCCCCCc1c(C)c2ccc(OS(N)(=O)=O)cc2oc1=O` [compound 37, 4-Methyl 3-tetradecylcoumarin-7-O-sulfamate] has an IC50 [1] of 10000 nM.

`Cc1c(CCC2CCCCC2)c(=O)oc2cc(OS(N)(=O)=O)ccc12` [compound 45, 3-(2-Cyclohexylethyl)-4-methylcoumarin-7-O-sulfamate] was tested, and the inhibition at 0.1 µM [1] was 37% and the inhibition at 1 µM [1] was 99%.
